Read-outs that look alike come from different tables or passages of the source. Starred links: 1 amine or outer side, 2 acyl side, 3 side chain; linkers in the order of their positions; H or OH if unused. Non-standard residues stand in square brackets, D forms with d. Residues, ends and D or L forms follow the SMILES beside them. Groups on a side chain read outwards from the residue. *: point of attachment. C18 diacid = O=C(O)CCCCCCCCCCCCCCCCC(=O)*; γGlu = O=C(O)[C@H](CCC(=O)[*:2])N[*:1]; εLys = N[C@@H](CCCCN[*:1])C(=O)[*:2]; Aib = CC(C)(N)C(=O)O
What was measured:
human GIP receptor = biological target: T1, human GIP receptor (Homo sapiens, UniProt P48546); assay: In vitro functional potency, CRE luciferase reporter, whole BHK cells (hGIPR); type: cell-based; conditions: BHK CRE luc2P hGIPR cells
T1 construct: expressed in transfected cells; host or cells: BHK (parent line BHKTS13), clone BHK CRE luc2P hGIPR
T1 sequence (P48546 22-466): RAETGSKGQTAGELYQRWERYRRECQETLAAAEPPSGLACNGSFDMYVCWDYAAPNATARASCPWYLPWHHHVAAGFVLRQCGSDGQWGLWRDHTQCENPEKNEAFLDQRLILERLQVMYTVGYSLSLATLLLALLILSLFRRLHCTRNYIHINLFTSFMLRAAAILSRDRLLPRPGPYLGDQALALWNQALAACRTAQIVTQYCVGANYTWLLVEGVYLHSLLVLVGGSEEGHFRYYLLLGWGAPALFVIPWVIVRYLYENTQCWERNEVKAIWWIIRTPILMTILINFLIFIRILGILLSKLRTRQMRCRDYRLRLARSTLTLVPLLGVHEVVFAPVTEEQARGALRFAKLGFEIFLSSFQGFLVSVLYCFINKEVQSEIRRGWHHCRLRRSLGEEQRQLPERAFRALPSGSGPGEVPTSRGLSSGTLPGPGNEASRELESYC
How it was run: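 Potencies are replicate means (n≥2) from non-linear log(agonist) vs response fits of CRE-driven luminescence. Cells were overnight-plated BHK CRE luc2P lines transfected with human GIPR or GLP-1R, 5000/well.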

[1] = Pharmacokinetic study in minipigs after i.v. administration; conditions: female, Göttingen, minipig, in vivo, iv
Description: The purpose of this example is to determine the half-life in vivo of the derivatives of the present invention after i.v. administration to minipigs, i.e. the prolongation of their time in the body and thereby their time of action. This is done in a pharmacokinetic (PK) study, where the terminal half-life of the derivative in question is determined. By terminal half-life is generally meant the period of time it takes to halve a certain plasma concentration, measured after the initial distribution phase.
Female Göttingen minipigs were obtained from Ellegaard Göttingen Minipigs (Dalmose, Denmark) approximately 7-14 months of age and weighing from approximately 16-35 kg were used in the studies. The minipigs were housed individually and fed restrictedly once daily with SDS minipig diet (Special Diets Services, Essex, UK).
After at 3 weeks of acclimatisation two permanent central venous catheters were implanted in vena cava caudalis in each animal. The animals were allowed 1 week recovery after the surgery, and were then used for repeated pharmacokinetic studies with a suitable wash-out period between successive derivative dosing.
The animals were fasted for approximately 18 hours before dosing and from 0 to 4 hours after dosing but had adlibitum access to water during the whole period.
The sodium salts of compounds of Examples 1 were dissolved to a concentration of 20-40 nmol/mL in a buffer containing 0.007% polysorbate 20, 50 mM sodium phosphate, 70 mM sodium chloride, pH 7.4. […]
Plasma was pipetted into Micronic tubes on dry ice and kept at −20° C. until analysed for plasma concentration of the compounds using ELISA, or a similar antibody-based assay, or LCMS. Individual plasma concentration-time profiles were analysed by a non-compartmental model in Phoenix WinNonLin ver. […] (Pharsight Inc., Mountain View, Calif., USA), and the resulting terminal half-lives (harmonic mean) determined.

[2] = hGIPR, CRE Luc 1% HSA EC50, 1% HSA
[3] = 0% HSA, read-out: hGIPR, CRE Luc 0% HSA EC50

CC[C@H](C)[C@H](NC(=O)[C@H](Cc1ccccc1)NC(=O)[C@H](CCC(=O)O)NC(=O)[C@H](CCCNC(=N)N)NC(=O)[C@H](C)NC(=O)[C@H](C)NC(=O)[C@H](CCC(N)=O)NC(=O)[C@H](CCCCNC(=O)[C@@H](N)CCCCNC(=O)[C@@H](N)CCCCNC(=O)CC[C@H](NC(=O)CCCCCCCCCCCCCCCCC(=O)O)C(=O)O)NC(=O)[C@H](CCC(=O)O)NC(=O)[C@H](CC(C)C)NC(=O)[C@H](CC(C)C)NC(=O)[C@@H](NC(=O)[C@H](CO)NC(=O)[C@H](Cc1ccc(O)cc1)NC(=O)[C@H](CC(=O)O)NC(=O)[C@H](CO)NC(=O)[C@@H](NC(=O)[C@H](Cc1ccccc1)NC(=O)[C@@H](NC(=O)CNC(=O)[C@H](CCC(=O)O)NC(=O)C(C)(C)NC(=O)[C@@H](N)Cc1ccc(O)cc1)[C@@H](C)O)[C@@H](C)O)[C@@H](C)CC)C(=O)N[C@@H](CCC(=O)O)C(=O)N[C@@H](Cc1c[nH]c2ccccc12)C(=O)N[C@@H](CC(C)C)C(=O)N[C@@H](CC(C)C)C(=O)N[C@@H](CCCNC(=N)N)C(=O)NCC(=O)NCC(=O)N1CCC[C@H]1C(=O)N[C@@H](CCC(=O)O)C(=O)N[C@@H](CO)C(=O)NCC(=O)N[C@@H](C)C(=O)N1CCC[C@H]1C(=O)N1CCC[C@H]1C(=O)N1CCC[C@H]1C(=O)N[C@@H](CO)C(=O)O [Compound 28] (H-Y[Aib]EGTFTSDYSILLEK([εLys-εLys-γGlu-C18 diacid])QAAREFIEWLLRGGPESGAPPPS-OH)
EC50 (human GIP receptor; hGIPR, CRE Luc 0% HSA EC50, 0% HSA): 0.0066 nM | EC50 (human GIP receptor; [2]): 0.0865 nM | half-life ([1]; i.v. administration to minipigs, harmonic mean, read-out: Terminal half-life t1/2 (converted)): 35 h

CC[C@H](C)[C@H](NC(=O)[C@H](Cc1ccccc1)NC(=O)[C@H](CCC(=O)O)NC(=O)[C@H](CCCNC(=N)N)NC(=O)[C@H](C)NC(=O)[C@H](C)NC(=O)[C@H](CCC(N)=O)NC(=O)[C@H](CCCCNC(=O)[C@@H](N)CCCCNC(=O)[C@@H](N)CCCCNC(=O)CC[C@H](NC(=O)CCCCCCCCCCCCCCCCC(=O)O)C(=O)O)NC(=O)[C@H](CCC(=O)O)NC(=O)[C@H](CC(C)C)NC(=O)[C@H](CC(C)C)NC(=O)[C@@H](NC(=O)[C@H](CO)NC(=O)[C@H](Cc1ccc(O)cc1)NC(=O)[C@H](CC(=O)O)NC(=O)[C@H](CO)NC(=O)[C@@H](NC(=O)[C@H](Cc1ccccc1)NC(=O)[C@@H](NC(=O)CNC(=O)[C@H](CCC(=O)O)NC(=O)C(C)(C)NC(=O)[C@@H](N)Cc1ccc(O)cc1)[C@@H](C)O)[C@@H](C)O)[C@@H](C)CC)C(=O)N[C@@H](CCC(=O)O)C(=O)N[C@@H](Cc1c[nH]c2ccccc12)C(=O)N[C@@H](CC(C)C)C(=O)N[C@@H](CC(C)C)C(=O)N[C@@H](C)C(=O)NCC(=O)NCC(=O)N1CCC[C@H]1C(=O)N[C@@H](CO)C(=O)N[C@@H](CO)C(=O)NCC(=O)N[C@@H](C)C(=O)N1CCC[C@H]1C(=O)N1CCC[C@H]1C(=O)N1CCC[C@H]1C(=O)N[C@@H](CO)C(=O)O [Compound 31] (H-Y[Aib]EGTFTSDYSILLEK([εLys-εLys-γGlu-C18 diacid])QAAREFIEWLLAGGPSSGAPPPS-OH)
EC50 (human GIP receptor; [3]): 0.0047 nM | EC50 (human GIP receptor; [2]): 0.189 nM | half-life [1]: 49 h

CC[C@H](C)[C@H](NC(=O)[C@H](Cc1ccccc1)NC(=O)[C@H](CCC(=O)O)NC(=O)[C@H](CCC(N)=O)NC(=O)[C@H](C)NC(=O)[C@H](C)NC(=O)[C@H](CCC(N)=O)NC(=O)[C@H](CCCCNC(=O)[C@@H](N)CCCCNC(=O)[C@@H](N)CCCCNC(=O)CC[C@H](NC(=O)CCCCCCCCCCCCCCCCC(=O)O)C(=O)O)NC(=O)[C@H](CCC(=O)O)NC(=O)[C@H](CC(C)C)NC(=O)[C@H](CC(C)C)NC(=O)[C@@H](NC(=O)[C@H](CO)NC(=O)[C@H](Cc1ccc(O)cc1)NC(=O)[C@H](CC(=O)O)NC(=O)[C@H](CO)NC(=O)[C@@H](NC(=O)[C@H](Cc1ccccc1)NC(=O)[C@@H](NC(=O)CNC(=O)[C@H](CCC(=O)O)NC(=O)C(C)(C)NC(=O)[C@@H](N)Cc1ccc(O)cc1)[C@@H](C)O)[C@@H](C)O)[C@@H](C)CC)C(=O)N[C@@H](CCC(=O)O)C(=O)N[C@@H](Cc1c[nH]c2ccccc12)C(=O)N[C@@H](CC(C)C)C(=O)N[C@@H](CC(C)C)C(=O)N[C@@H](C)C(=O)NCC(=O)NCC(=O)N1CCC[C@H]1C(=O)N[C@@H](CO)C(=O)N[C@@H](CO)C(=O)NCC(=O)N[C@@H](C)C(=O)N1CCC[C@H]1C(=O)N1CCC[C@H]1C(=O)N1CCC[C@H]1C(=O)N[C@@H](CO)C(=O)O [Compound 29] (H-Y[Aib]EGTFTSDYSILLEK([εLys-εLys-γGlu-C18 diacid])QAAQEFIEWLLAGGPSSGAPPPS-OH)
EC50 (human GIP receptor; [3]): 0.0038 nM | EC50 (human GIP receptor; [2]): 0.102 nM | half-life [1]: 68 h
